Tests used:
[1] = highly selective antagonist at the D4 receptor; cited from earlier work
D1 receptor = D1 receptor (Homo sapiens, UniProt P21728); assay: Fraction of receptors occupied, calculated from drug concentration and Ki; settings: at a therapeutic olanzapine level
Source text: In particular, affinities of many drugs for receptors are well known. For example, Goodman and Gilmans “The Pharmacological Basis of Therapeutics,” Tenth Edition.

D1 receptor, sequence (P21728 whole entry): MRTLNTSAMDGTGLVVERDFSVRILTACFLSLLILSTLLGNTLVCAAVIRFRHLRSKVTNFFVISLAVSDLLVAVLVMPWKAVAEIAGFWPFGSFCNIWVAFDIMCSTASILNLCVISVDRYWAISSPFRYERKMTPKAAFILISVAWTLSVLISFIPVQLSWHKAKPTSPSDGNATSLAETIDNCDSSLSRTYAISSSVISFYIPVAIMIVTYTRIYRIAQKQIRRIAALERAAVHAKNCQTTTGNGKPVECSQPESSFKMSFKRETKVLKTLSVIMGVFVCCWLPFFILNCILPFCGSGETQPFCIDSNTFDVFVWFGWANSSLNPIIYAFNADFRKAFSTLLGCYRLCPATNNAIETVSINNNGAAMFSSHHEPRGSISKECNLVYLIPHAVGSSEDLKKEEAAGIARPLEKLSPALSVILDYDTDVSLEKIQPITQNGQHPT

Structure (SMILES)	antipsychotic effectiveness [1]	D1 receptors blocked (antagonized) (D1 receptor)
Clc1ccc(N2CCN(Cc3c[nH]c4ncccc34)CC2)cc1 [L-745870]	ineffective	
Cc1cc2c(s1)Nc1ccccc1N=C2N1CCN(C)CC1 [olanzapine]		approximately 47%
